Measurements as given in PMC5680178, “D-Cateslytin, a new antimicrobial peptide with therapeutic potential” (Scientific Reports, 2017).
≈ marks a conversion by molar mass, not a printed value. Read-outs that look alike come from different tables or passages of the source. Non-standard residues stand in square brackets, D forms with d. Residues, ends and D or L forms follow the SMILES beside them. No end group written: not given here.

Key:
[1] = tested on: Fusobacterium nucleatum (ATCC 49256); conditions: for FICI: sum of both FICs; for MIC (MIC alone): ATCC 49256, 24 h
Procedure: (§5) According to the European Committee on Antimicrobial Susceptibility Testing[20], the effect of a combination between two antibacterial compounds can be evaluated by their FICI (Fractional Inhibitory Concentration Index). The FICI consists of the sum of the FICs of both antibacterial agents: FIC index = FICantimicrobial + FICD-Ctl. For each compound, the FIC was determined as the ratio between the MIC of the compound in combination (MICcombination) and the MIC of the compound acting alone (MICalone). On the basis of their FIC index, each combination was categorized as synergistic (≤0.5), additive (>0.5 to 1), indifferent (>1 to <4) or antagonistic (≥4).
(§6) Microorganisms were cultured according to the manufacturer’s or the owner’s instructions in their respective media: Luria Bertani broth (Sigma) was used for E. coli strains, Mueller Hinton broth (Difco) for S. aureus strains and Anaerobe Basal broth (Oxoid) for F. nucleatum, P. intermedia and P. micra.
(§7) The MIC was determined by broth microdilution. An overnight culture of each bacterial strain was diluted (approximately to OD600 = 0,001) and microorganisms were plated in 96-well plates in the presence of different concentrations of antimicrobials, D-Ctl or L-Ctl alone or in combination. Three technical replicates were performed for each condition. After 24 hours of incubation, the microorganism growth was assessed by optical density OD600 using a Multiskan™ EX microplate spectrophotometer (Thermo Fisher Scientific). […] Each experiment was performed with at least three biological replicates.

[2] = tested on: Prevotella intermedia (ATCC 49046); conditions: for FICI: sum of both FICs; for MIC (MIC alone): ATCC 49046, 24 h
Procedure: as §5, §6, §7

[3] = tested on: Parvimonas micra (ATCC 33270); conditions: for FIC: MICcombination/MICalone; for FICI: sum of both FICs; for MIC (MIC alone): broth microdilution, Anaerobe Basal broth, 24 h, OD600, 100% inhibition, modified Gompertz function, biological replicates
Procedure: as §5, §6, §7

[4] = tested on: Fusobacterium nucleatum (ATCC 49256); experiment: microbe, parasite or virus in culture; conditions: ATCC49256, 24 h, read-out: MIC (MIC alone)
Procedure: as §5, §6, §7

[5] = tested on: Prevotella intermedia (ATCC 49046); experiment: microbe, parasite or virus in culture; conditions: ATCC49046, 24 h, read-out: MIC (MIC alone)
Procedure: as §5, §6, §7

[6] = tested on: Parvimonas micra (ATCC 33270); experiment: microbe, parasite or virus in culture; conditions: ATCC33270, 24 h, read-out: MIC (MIC alone)
Procedure: as §5, §6, §7

[7] = tested on: Escherichia coli (ATCC 25922); experiment: microbe, parasite or virus in culture; assay type: cell-based
Procedure: (§1) The MIC was determined by broth microdilution. […] Three technical replicates were performed for each condition.

[8] = tested on: E. coli (ATCC 25922) wild type; conditions: cultured with ½ MIC of the agent, diluted daily, for 24 days; value at day 24; three technical replicates
Procedure: An E. coli (ATCC® 25922™) culture was sequentially diluted every day in the presence of the different antibacterial compounds: D-Ctl, ampicillin or cefotaxime at ½ MIC during 24 days. The changes in the MICs values were determined as previously described by broth microdilution at the indicated times. The experiment was performed with three technical replicates.

[9] = tested on: Escherichia coli (MDR) (K-12); conditions: for FIC: MICcombination/MICalone; for FICI: sum of both FICs; for MIC (MIC alone): broth microdilution, Luria Bertani broth, 24 h, OD600, lowest concentration inhibiting 100% of inoculum, modified Gompertz function, biological replicates
Procedure: as §5, §6, §7

[10] = tested on: Escherichia coli (MDR) (K-12); experiment: microbe, parasite or virus in culture; conditions: 24 h, read-out: MIC (MIC alone)
Procedure: as §5, §6, §7

[11] = tested on: Staphylococcus aureus (MSSA) (ATCC 25923); experiment: microbe, parasite or virus in culture; conditions: for FIC: MICcombination/MICalone; for FICI: sum of both FICs
Procedure: as §1

[12] = tested on: secreted proteases from E. coli MDR; conditions: 400 μL filtered culture supernatant of E. coli MDR, 37 °C, 24 hours; RP-HPLC C18, 214 nm, versus peptide in water
Procedure: (§2) Bacterial supernatant was prepared as follows: a single colony of each strain was resuspended in 5 mL of culture medium as indicated above and incubated at 37 °C overnight. The culture was then centrifuged at 10000 g for 1 min and the supernatant was filtered using a […] MillexH-GV (Millipore, Carrigtwohill, Ireland). An aliquot of each supernatant was incubated at 37 °C for 48 hours. Absence of growth was interpreted as lack of viable microorganism. 400 μL of supernatant was then incubated with or without each peptide of interest at 37 °C for 24 hours. As a control, each peptide was incubated in water at 37 °C for 24 hours. Samples were then separated using a Dionex HPLC system (Ultimate 3000; Sunnyvale, CA USA) on a Nucleosil reverse-phase 300–5C18-column ([…]; particle size: […]; porosity, 300 Å) (Macherey Nagel, Hoerdt, France). Absorbance was monitored at 214 nm and the solvent system consisted of 0.1% (v/v) TFA in water (solvent A) and 0.09% (v/v) TFA in 70% (v/v) acetonitrile-water (solvent B). Elution was performed at a flow rate of […] with a gradient of solvent B as indicated on the chromatograms.

[13] = tested on: secreted proteases from E. coli wild type; conditions: 400 μL filtered culture supernatant of E. coli wild type, 37 °C, 24 hours; RP-HPLC C18, 214 nm, versus peptide in water
Procedure: as §2

[14] = tested on: secreted proteases from F. nucleatum; conditions: 400 μL filtered culture supernatant of F. nucleatum, 37 °C, 24 hours; RP-HPLC C18, 214 nm, versus peptide in water
Procedure: as §2

[15] = tested on: secreted proteases from P. intermedia; conditions: 400 μL filtered culture supernatant of P. intermedia, 37 °C, 24 hours; RP-HPLC C18, 214 nm, versus peptide in water
Procedure: as §2

[16] = tested on: secreted proteases from P. micra; conditions: 400 μL filtered culture supernatant of P. micra, 37 °C, 24 hours; RP-HPLC C18, 214 nm, versus peptide in water
Procedure: as §2

[17] = tested on: secreted proteases from S. aureus methicillin resistant (MRSA); conditions: 400 μL filtered culture supernatant of MRSA, 37 °C, 24 hours; RP-HPLC C18, 214 nm, versus peptide in water
Procedure: as §2

[18] = tested on: secreted proteases from S. aureus methicillin sensitive (MSSA); conditions: 400 μL filtered culture supernatant of MSSA, 37 °C, 24 hours; RP-HPLC C18, 214 nm, versus peptide in water
Procedure: as §2

[19] = tested on: Staphylococcus aureus (MRSA) (S1); conditions: for FIC: MICcombination/MICalone; for FICI: sum of both FICs
Procedure: as §5, §6, §7

[20] = tested on: Staphylococcus aureus (MRSA) (S1); experiment: microbe, parasite or virus in culture; conditions: 24 h, read-out: MIC (MIC alone)
Procedure: as §5, §6, §7

[21] = tested on: epithelial cells, smooth muscle cells and T cells; conditions: cited from earlier work
Description: In the last decade, there have been a few HDPs entering clinical trials, specifically cathelicidins and defensins natural peptides or derivatives such as LL-37, MBI-226 (studies NCT00211523, NCT00211497 and NCT00027248 for the prevention of central venous catheter-related bloodstream infections and acne) and PMX-30063 (study NCT01211470 for acute bacterial skin and skin-structure infection). However, the clinical and commercial development of these peptide-based drugs has some limitations such as high cost of production, susceptibility to proteases and cytotoxicity. For example, the human cath ...

V8 = conditions: cited from earlier work
Description: (§3) To this aim, different bacterial ...

aureolysin = conditions: cited from earlier work
Description: as §3

[22] = tested on: secreted proteases from S. aureus methicillin resistant (MRSA); conditions: supernatant of MRSA, previous study; cited from earlier work
Description: (§4) Linear L-peptides with α-helical structures are usually susceptible to proteolysis. […] The specific spatial configurations of the cleavage sites for these enzymes are not present in D-peptides although these peptides might be cleaved by non-specific hydrolysis during enzymatic digestion. Subsequently, we assessed the sensitivity of D-Ctl to secreted bacterial proteases by HPLC. To this aim, different bacterial ...

[23] = tested on: secreted proteases from S. aureus methicillin sensitive (MSSA); conditions: supernatant of MSSA, previous study; cited from earlier work
Description: as §4

[24] = combination D-Ctl + amoxicillin, MICcombination/MICalone
[25] = combination D-Ctl + amoxicillin, category by FIC index
[26] = combination D-Ctl + amoxicillin
[27] = broth microdilution, Mueller Hinton broth, 24 h, OD600, 100% inhibition, modified Gompertz function, biological replicates
[28] = combination D-Ctl + methicillin

CC1(C)S[C@@H]2[C@H](NC(=O)[C@H](N)c3ccc(O)cc3)C(=O)N2[C@H]1C(=O)O [Amoxicillin]
FIC [1, 24]: 0.5
Effect [1, 25]: Additive
FICI [1, 26]: 1.0
FIC [2, 24]: 0.25
Effect [2, 25]: Synergistic
FICI [2, 26]: 0.5
FIC [3, 26]: 0.25
Effect [3, 25]: Synergistic
FICI [3, 26]: 0.5
MIC [4]: 0.6 µg/mL (≈ 1.64 µM)
MIC [5]: 0.5 µg/mL (≈ 1.37 µM)
MIC [6]: 0.5 µg/mL (≈ 1.37 µM)

CC1(C)S[C@@H]2[C@H](NC(=O)[C@H](N)c3ccccc3)C(=O)N2[C@H]1C(=O)O [Ampicillin]
MIC ([7]; Escherichia coli, ATCC25922, broth microdilution, Luria Bertani broth, 24 h, OD600, lowest concentration inhibiting 100% of inoculum, modified Gompertz function, biological replicates, read-out: MIC): 7 µg/mL (≈ 20 µM)
fold change in MIC under selective pressure [8]: 3 x MIC

CO/N=C(\C(=O)N[C@@H]1C(=O)N2C(C(=O)O)=C(COC(C)=O)CS[C@H]12)c1csc(N)n1 [Cefotaxime]
fold change in MIC under selective pressure [8]: 3 x MIC
FIC ([9]; combination D-Ctl + cefotaxime): 0.5
Effect ([9]; combination D-Ctl + cefotaxime, category by FIC index): Additive
FICI ([9]; combination D-Ctl + cefotaxime): 1.0
MIC [10]: 0.1 µg/mL (≈ 0.22 µM)

CSCC[C@@H](NC(=O)[C@@H](CO)NC(=O)[C@H](N)CCCNC(=N)N)C(=O)N[C@H](CCCNC(=N)N)C(=O)N[C@H](CC(C)C)C(=O)N[C@H](CO)C(=O)N[C@H](Cc1ccccc1)C(=O)N[C@H](CCCNC(=N)N)C(=O)N[C@H](C)C(=O)N[C@H](CCCNC(=N)N)C(=O)NCC(=O)N[C@H](Cc1ccc(O)cc1)C(=O)NCC(=O)N[C@H](Cc1ccccc1)C(=O)N[C@H](CCCNC(=N)N)C(=O)O [D-Ctl, D-Cateslytin] (H-[dR][dS][dM][dR][dL][dS][dF][dR][dA][dR]G[dY]G[dF][dR]-OH)
MIC ([7]; ATCC 25922, 24 h): 8.0 µg/mL (≈ 4.3 µM)
MIC (MIC alone) [11, 27]: 24 µg/mL (≈ 12.9 µM)
FIC [11, 28]: 0.5
FICI [11, 28]: 0.75
stability in bacterial supernatant [12]: not degraded
stability in bacterial supernatant [13]: not degraded
stability in bacterial supernatant [14]: not degraded
stability in bacterial supernatant [15]: not degraded
stability in bacterial supernatant [16]: not degraded
stability in bacterial supernatant [17]: not degraded
stability in bacterial supernatant [18]: not degraded
MIC (MIC alone) [9]: 8.4 µg/mL (≈ 4.52 µM)
FIC ([9]; combination D-Ctl + cefotaxime): 0.5
FICI ([9]; combination D-Ctl + cefotaxime): 1.0
MIC (MIC alone) [1]: 22 µg/mL (≈ 11.8 µM)
FICI [1, 26]: 1.0
MIC (MIC alone) [2]: 10 µg/mL (≈ 5.38 µM)
FICI [2, 26]: 0.5
MIC (MIC alone) [3]: 23 µg/mL (≈ 12.4 µM)
FIC [3, 26]: 0.25
FICI [3, 26]: 0.5
MIC (MIC alone) [19, 27]: 18 µg/mL (≈ 9.68 µM)
FIC ([19]; combination D-Ctl + vancomycin): 1
FICI ([19]; combination D-Ctl + vancomycin): 2

NC[C@H]1O[C@H](O[C@H]2[C@H](O)[C@@H](O[C@H]3O[C@H](CO)[C@@H](O)[C@H](N)[C@H]3O)[C@H](N)C[C@@H]2N)[C@H](O)[C@@H](O)[C@@H]1O [Kanamycin]
MIC ([7]; broth microdilution, Luria Bertani broth, 24 h, OD600, lowest concentration inhibiting 100% of inoculum, modified Gompertz function, biological replicates): 21.6 µg/mL (≈ 44.6 µM)

COc1cccc(OC)c1C(=O)N[C@@H]1C(=O)N2[C@@H]1SC(C)(C)[C@@H]2C(=O)O [Methicillin]
MIC ([11]; Staphylococcus aureus, 24 h, read-out: MIC (MIC alone)): 1.2 µg/mL (≈ 3.15 µM)
FIC [11, 28]: 0.25
MIC combination ([11]; combination D-Ctl + methicillin, broth microdilution, at least in duplicate): 0.3 µg/mL
Effect ([11]; combination D-Ctl + methicillin, category by FIC index): Additive
FICI [11, 28]: 0.75

CN[C@H](CC(C)C)C(=O)N[C@H]1C(=O)N[C@@H](CC(N)=O)C(=O)N[C@H]2C(=O)N[C@H]3C(=O)N[C@H](C(=O)N[C@H](C(=O)O)c4cc(O)cc(O)c4-c4cc3ccc4O)[C@H](O)c3ccc(c(Cl)c3)Oc3cc2cc(c3O[C@@H]2O[C@H](CO)[C@@H](O)[C@H](O)[C@H]2O[C@H]2C[C@](C)(N)[C@H](O)[C@H](C)O2)Oc2ccc(cc2Cl)[C@H]1O [Vancomycin]
FIC ([19]; combination D-Ctl + vancomycin): 1
Effect ([19]; combination D-Ctl + vancomycin, category by FIC index): Indifferent
FICI ([19]; combination D-Ctl + vancomycin): 2
MIC [20]: 0.8 µg/mL (≈ 0.552 µM)

LL-37: human cathelicidin host defence peptide
level at which apoptosis is enhanced [21]: above 10 µM
proteolysis by secreted S. aureus protease (V8): cleavage
proteolysis by secreted S. aureus protease (aureolysin): cleavage

RSMRLSFRARGYGFR [L-Ctl, L-Cateslytin]
MIC ([7]; ATCC 25922, 24 h): 75 µg/mL
stability in bacterial supernatant [12]: degraded
stability in bacterial supernatant [13]: degraded
stability in bacterial supernatant [14]: resistant to the degradation
stability in bacterial supernatant [15]: resistant to the degradation
stability in bacterial supernatant [16]: resistant to the degradation
MIC (MIC alone) [9]: 150 µg/mL
MIC (MIC alone) [1]: 125 µg/mL
MIC (MIC alone) [2]: 149 µg/mL
MIC (MIC alone) [3]: 120 µg/mL
stability in bacterial supernatant [22]: stable
stability in bacterial supernatant [23]: stable
